Like-named read-outs stand apart in the source and are kept apart here. Residues, ends and D or L forms follow the SMILES beside them. No end group written: not given here. Where only a bound is given, the exact number is not on record here.

One assay has as its target HLA-DQ8 (Homo sapiens, UniProt P01909+P01920, A209T/A45G/C70Q/D89A/DUP78-78/E183D/E77G/F237L/G63E/H199R/I129T/K197E/L178F/L74F/L98V/Q57E/Q76R/S185I/S97I/T217I/T49S/V73L/Y58L). The assay can be described thus: MHC II/peptide competition binding assay, HLA-DQ8. The procedure:
(§1) One skilled in the art would appreciate that the 15-mers used included shorter de-epitoped high molecular weight glutenin peptide sequences (mutated repeating antigenic units), as described throughout. For example, Table 2 provides a listing of 15-mers and the shorter mutated repeating antigenic units present therein. […] MHC II molecules were purified by affinity chromatography, and peptides were radiolabeled using the chloramine T method. After an incubation period, the bound and unbound radiolabeled species were separated, and their relative amounts were determined by either size-exclusion gel-filtration chromatography or monoclonal antibody capture of MHC. The percent of bound radioactivity was then determined.

For assay [1], the target named is HLA-DQ2.5 (Homo sapiens, UniProt P01909+P01920, A45G/A70V/D89A/E106A/E77G/E98D/H199R/L107V/N214S/P84L/P87L/T103K/T109R/T172A/T60S/V78E/V99I/Y58L/Y62S/Y69I/Y79F). The assay can be described thus: MHC II/peptide competition binding assay, HLA-DQ2.5. Here is the method: as §1
For a further assay, the target named is HLA-DQ7.5 (Homo sapiens, UniProt P01909+P01920). The assay can be described thus: MHC II/peptide competition binding assay, HLA-DQ7.5. The procedure:
The peptides were synthesized as purified material on the 2 mg scale with free acid C-termini (A&A labs, USA). One skilled in the art would appreciate that the 15-mers used included shorter de-epitoped high molecular weight glutenin peptide sequences (mutated repeating antigenic units), as described throughout. For example, Table 2 provides a listing of 15-mers and the shorter mutated repeating antigenic units present therein.
Briefly, competition assays using different concentrations of wild-type (WT) and modified glutenin peptides were conducted by diluting the peptides in NP40 buffer, and incubation for 2-4 days with purified MHC II and a radiolabeled known MHC binding peptide (peptide probe). MHC II molecules were purified by affinity chromatography, and peptides were radiolabeled using the chloramine T method. After an incubation period, the bound and unbound radiolabeled species were separated, and their relative amounts were determined by either size-exclusion gel-filtration chromatography or monoclonal antibody capture of MHC. The percent of bound radioactivity was then determined.

For assay [2], the target named is HLA-DQ2.5. In words: MHC II competition binding assay (purified MHC II, radiolabeled probe peptide as competitor).
The mark [3] stands for this setting: Table 3, 15-mer peptides, >40000 signifies binding is undetectable by assay.

`C[C@H](NC(=O)[C@@H]1CCCN1C(=O)CNC(=O)[C@H](Cc1c[nH]cn1)NC(=O)CNC(=O)[C@H](CCC(=O)O)NC(=O)[C@H](CCC(N)=O)NC(=O)CNC(=O)[C@@H](N)CCC(N)=O)C(=O)N[C@@H](CO)C(=O)N1CCC[C@H]1C(=O)N1CCC[C@H]1C(=O)N[C@@H](CCC(N)=O)C(=O)N[C@@H](CO)C(=O)NCC(=O)O` [SEQ ID NO: 175] (H-QGQEGHGPASPPQSG-OH; N-terminus assumed): the values for the IC50 on HLA-DQ8 and on HLA-DQ2.5 [1] were greater than 40 µM and 22.1 µM, respectively.

Regarding `CC(C)C[C@H](NC(=O)[C@H](CO)NC(=O)[C@@H](NC(=O)[C@@H]1CCCN1C(=O)[C@H](CC(=O)O)NC(=O)[C@H](Cc1ccc(O)cc1)NC(=O)CNC(=O)[C@H](Cc1c[nH]cn1)NC(=O)[C@H](CCC(N)=O)NC(=O)CNC(=O)[C@@H](N)CCC(N)=O)[C@@H](C)O)C(=O)N[C@@H](CCC(=O)O)C(=O)N[C@@H](CCC(N)=O)C(=O)N[C@@H](CO)C(=O)NCC(=O)O` [SEQ ID NO: 173] (H-QGQHGYDPTSLEQSG-OH; N-terminus assumed), the IC50 (usually the concentration that gives 50% inhibition) at HLA-DQ8 was greater than 40 µM; at HLA-DQ2.5 [1], 15.9 µM.

For the molecule `NC(=O)CC[C@H](NC(=O)CNC(=O)[C@@H](N)CCC(N)=O)C(=O)N[C@@H](CCC(=O)O)C(=O)N1CCC[C@H]1C(=O)N[C@@H](Cc1ccc(O)cc1)C(=O)NCC(=O)N1CCC[C@H]1C(=O)N[C@@H](CO)C(=O)N[C@@H](CO)C(=O)N1CCC[C@H]1C(=O)N[C@@H](CCC(=O)O)C(=O)N[C@@H](CCC(N)=O)C(=O)N[C@@H](CO)C(=O)NCC(=O)O` [SEQ ID NO: 176] (H-QGQEPYGPSSPEQSG-OH), the IC50 at HLA-DQ7.5 is 28.6 µM.

As for `C[C@@H](O)[C@H](NC(=O)[C@@H]1CCCN1C(=O)[C@H](Cc1ccc(O)cc1)NC(=O)[C@H](Cc1ccc(O)cc1)NC(=O)CNC(=O)[C@H](CCC(N)=O)NC(=O)[C@H](CCC(N)=O)NC(=O)CNC(=O)[C@@H](N)CCC(N)=O)C(=O)N[C@@H](CO)C(=O)N1CCC[C@H]1C(=O)N[C@@H](CCC(N)=O)C(=O)N[C@@H](CCC(N)=O)C(=O)N[C@@H](CO)C(=O)NCC(=O)O` [P1a, reference compound] (H-QGQQGYYPTSPQQSG-OH; N-terminus assumed), the results for the IC50 at HLA-DQ8 (setting [3]) and at HLA-DQ2.5 [1] (setting [3]) were 14.2 µM and 29.8 µM, respectively.

On to `C[C@H](NC(=O)CNC(=O)[C@@H](N)CCC(N)=O)C(=O)N[C@@H](C)C(=O)NCC(=O)N[C@@H](Cc1ccc(O)cc1)C(=O)N[C@@H](Cc1ccc(O)cc1)C(=O)N1CCC[C@H]1C(=O)N[C@H](C(=O)N[C@@H](CO)C(=O)N1CCC[C@H]1C(=O)N[C@@H](CCCNC(=N)N)C(=O)N[C@@H](CCC(N)=O)C(=O)N[C@@H](CO)C(=O)NCC(=O)O)[C@@H](C)O` [P1c] (H-QGAAGYYPTSPRQSG-OH), for which the IC50 on HLA-DQ8 (setting [3]) was greater than 40 µM; on HLA-DQ2.5 [1] (setting [3]), greater than 40 µM; at HLA-DQ7.5 (setting [3]), 19.9 µM.

On to `C[C@@H](O)[C@H](NC(=O)[C@@H]1CCCN1C(=O)[C@H](Cc1ccc(O)cc1)NC(=O)[C@H](Cc1ccc(O)cc1)NC(=O)CNC(=O)[C@H](CCC(=O)O)NC(=O)[C@H](CCC(N)=O)NC(=O)CNC(=O)[C@@H](N)CCC(N)=O)C(=O)N[C@@H](CO)C(=O)N1CCC[C@H]1C(=O)N[C@@H](CCC(=O)O)C(=O)N[C@@H](CCC(N)=O)C(=O)N[C@@H](CO)C(=O)NCC(=O)O` [P1b, reference compound] (H-QGQEGYYPTSPEQSG-OH; N-terminus assumed), for which the IC50 was 3.76 µM on HLA-DQ8 (setting [3]) and 3.29 µM at HLA-DQ2.5 [1] (setting [3]).

Consider `C[C@H](NC(=O)[C@@H]1CCCN1C(=O)CNC(=O)[C@H](CCCNC(=N)N)NC(=O)CNC(=O)[C@H](CCC(=O)O)NC(=O)[C@H](CCC(N)=O)NC(=O)CNC(=O)[C@@H](N)CCC(N)=O)C(=O)N[C@@H](CO)C(=O)N1CCC[C@H]1C(=O)N[C@@H](CCCNC(=N)N)C(=O)N[C@@H](CCC(N)=O)C(=O)N[C@@H](CO)C(=O)NCC(=O)O` [SEQ ID NO: 145] (H-QGQEGRGPASPRQSG-OH), for which the IC50 on HLA-DQ7.5 is greater than 40 µM.

`C[C@@H](O)[C@H](NC(=O)[C@@H]1CCCN1C(=O)[C@H](Cc1ccc(O)cc1)NC(=O)[C@H](Cc1ccc(O)cc1)NC(=O)[C@H](CCCNC(=N)N)NC(=O)[C@@H]1CCCN1C(=O)[C@H](CCC(N)=O)NC(=O)CNC(=O)[C@@H](N)CCC(N)=O)C(=O)N[C@@H](CO)C(=O)N1CCC[C@H]1C(=O)N[C@@H](CCCNC(=N)N)C(=O)N[C@@H](CCC(N)=O)C(=O)N[C@@H](CO)C(=O)NCC(=O)O` [P1e] (H-QGQPRYYPTSPRQSG-OH): the IC50 on HLA-DQ8 (setting [3]) is 32.5 µM; at HLA-DQ2.5 [1] (setting [3]), 33.2 µM; on HLA-DQ7.5 (setting [3]) it was 19.4 µM.

On to `C[C@@H](O)[C@H](NC(=O)[C@@H]1CCCN1C(=O)CNC(=O)[C@H](Cc1ccc(O)cc1)NC(=O)CNC(=O)[C@H](CCC(=O)O)NC(=O)[C@H](CCC(N)=O)NC(=O)CNC(=O)[C@@H](N)CCC(N)=O)C(=O)N[C@@H](CO)C(=O)NCC(=O)N[C@@H](CCC(=O)O)C(=O)N[C@@H](CCC(N)=O)C(=O)N[C@@H](CO)C(=O)NCC(=O)O` [SEQ ID NO: 177] (H-QGQEGYGPTSGEQSG-OH; N-terminus assumed), for which the results for the IC50 on HLA-DQ8 and on HLA-DQ2.5 [1] were greater than 40 µM and 25.3 µM, respectively.

As to `C[C@@H](O)[C@H](NC(=O)[C@@H]1CCCN1C(=O)[C@H](Cc1ccc(O)cc1)NC(=O)[C@H](Cc1ccc(O)cc1)NC(=O)CNC(=O)[C@@H]1CCCN1C(=O)[C@H](CCC(N)=O)NC(=O)CNC(=O)[C@@H](N)CCC(N)=O)C(=O)N[C@@H](CO)C(=O)N1CCC[C@H]1C(=O)N[C@@H](Cc1c[nH]cn1)C(=O)N[C@@H](CCC(N)=O)C(=O)N[C@@H](CO)C(=O)NCC(=O)O` [SEQ ID NO: 178] (H-QGQPGYYPTSPHQSG-OH; N-terminus assumed), the IC50 is greater than 40 µM on HLA-DQ8 and 29.4 µM at HLA-DQ2.5 [1].

With `C[C@@H](O)[C@H](NC(=O)[C@@H]1CCCN1C(=O)[C@H](Cc1ccc(O)cc1)NC(=O)[C@H](Cc1ccc(O)cc1)NC(=O)CNC(=O)[C@H](CO)NC(=O)[C@H](CCC(N)=O)NC(=O)CNC(=O)[C@@H](N)CCC(N)=O)C(=O)N[C@@H](CO)C(=O)N1CCC[C@H]1C(=O)N[C@H](C(=O)N[C@@H](CCC(N)=O)C(=O)N[C@@H](CO)C(=O)NCC(=O)O)[C@@H](C)O` [SEQ ID NO: 179] (H-QGQSGYYPTSPTQSG-OH; N-terminus assumed), the IC50 at HLA-DQ8 was greater than 40 µM; at HLA-DQ2.5 [1] it was 29.7 µM.

QGQPGYYPTSPHQSG-OH [modified 15-mer peptide … (SEQ ID NO: 178)]: the IC50 with HLA-DQ2.5 [2] is 29.4 µM.

In the assay with HLA-DQ2.5 [2], QGQHGYDPTSLEQSG-OH [modified 15-mer peptide … (SEQ ID NO: 173)] had a concentration for half-maximal inhibition (IC50) of 15.9 µM.

In the assay with HLA-DQ2.5 [2], QGQSGYYPTSPTQSG-OH [modified 15-mer peptide … (SEQ ID NO: 179)] showed an IC50 of 29.7 µM. This IC50 is about 1.9-fold higher than that of the molecule before.

QGQEGYGPTSGEQSG-OH [modified 15-mer peptide … (SEQ ID NO: 177)] gave an IC50 with HLA-DQ2.5 [2] of 25.3 µM.

As for QGQEGHGPASPPQSG-OH [modified 15-mer peptide … (SEQ ID NO: 175)], the IC50 in the assay with HLA-DQ2.5 [2] stood at 22.1 µM. This IC50 and that of the molecule before are within 1.5-fold of each other.

In the case of QGQKGYYPTSPHQSG-OH [modified 15-mer peptide … (SEQ ID NO: 143)], the IC50 in the assay with HLA-DQ2.5 [2] was 34.4 µM.
